Test results taken from US20040152695A1, “Pharmaceutical composition of 1-(3-hydroxy-4-methoxyphenyl)-4-methyl-5-ethyl-7,8-dimethoxy-5H-2,3-benzodiazepine and uses thereof” (Vela Pharmaceuticals, Inc., priority 2002, published 2004).

Columns and labels:
TXA2 receptor [1] = biological target: T1, TXA2 receptor (Homo sapiens, UniProt P21731); details: reference competitor in [3H]SQ 29,548 assay; cited from earlier work
T1 construct: was determined via the human platelet-based assay of Hedberg et al; from tissue; host or cells: human platelets
T1 sequence (P21731 1-343): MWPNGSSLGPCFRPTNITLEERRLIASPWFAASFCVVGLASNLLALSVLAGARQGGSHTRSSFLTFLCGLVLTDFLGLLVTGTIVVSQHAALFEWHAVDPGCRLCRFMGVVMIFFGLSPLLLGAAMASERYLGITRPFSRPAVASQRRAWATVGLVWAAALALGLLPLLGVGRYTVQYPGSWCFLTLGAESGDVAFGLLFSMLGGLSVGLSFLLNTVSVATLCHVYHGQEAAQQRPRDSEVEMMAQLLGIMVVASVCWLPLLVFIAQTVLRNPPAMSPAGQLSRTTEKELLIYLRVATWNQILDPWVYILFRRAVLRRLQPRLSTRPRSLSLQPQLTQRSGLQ

[2] = tested on: DSS-induced colitis in mice; test: Dextran sulfate sodium induced colitis: mouse model of inflammatory bowel disease; type: in vivo; details: for % of normal length: colon length; for Mean DAIWT ± SEM: DAI without weight loss parameter; for Mean DAI ± SEM: mice
LTB4 receptor = biological target: T2, LTB4 receptor (Cavia porcellus, UniProt H0VYV8); test: Inhibition of [3H]LTB4 binding, guinea pig spleen membrane assay; details: 10 μM test compound; for LTB4 % inhib @ 10 μm: 1 nM [3H]LTB4; for inhibition at 10 µM: 1 nM [3H]LTB4, read-out: LTB4 % inhib @ 10 μm
T2 construct: 1.0 mg/mL of the Guinea pig spleen membrane preparation; from tissue; host or cells: guinea pig spleen membranes
T2 sequence (H0VYV8 1-348): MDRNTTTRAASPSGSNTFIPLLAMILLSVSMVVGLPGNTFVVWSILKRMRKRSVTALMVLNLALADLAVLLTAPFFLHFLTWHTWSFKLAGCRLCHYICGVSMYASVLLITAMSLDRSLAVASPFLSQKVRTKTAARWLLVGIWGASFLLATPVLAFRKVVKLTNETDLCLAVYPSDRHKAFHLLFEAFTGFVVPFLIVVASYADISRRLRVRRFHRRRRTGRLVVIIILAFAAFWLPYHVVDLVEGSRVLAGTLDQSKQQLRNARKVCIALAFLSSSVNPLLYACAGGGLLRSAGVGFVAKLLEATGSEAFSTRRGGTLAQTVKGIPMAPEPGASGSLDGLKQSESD
Description: The ability of 1-(3-hydroxy-4-methoxyphenyl)-4-methyl-5-ethyl-7,8-dimethoxy-5H-2,3-benzodiazepine to inhibit [^3H]LTB4 binding to the LTB4 receptor was determined as follows using the guinea pig spleen membrane assay of Cheng et al., J. Pharmacol. Exp. Ther., 236(1), 126-132, 1986, the entire disclosure of which is incorporated herein by reference.
Reactions were carried out in a phosphate buffer (pH 7.4) containing NaCl, MgCl2, EDTA, and bacitracin. The reaction volume of 150 μL containing 1.0 mg/mL of the Guinea pig spleen membrane preparation and 1 nM [^3H]LTB4, with or without a candidate inhibitor, was incubated at 0-4° C. for 2 hours. Candidate inhibitors included the compounds listed in Table 1 and unlabeled LTB4 as a control. The reaction was terminated by rapid vacuum filtration onto glass fiber filters. The filter was washed with cold buffer, dried and placed in a scintillation vial. Radioactivity trapped onto the filters was determined and compared to control values in order to ascertain any interactions of the test compound with the LTB4 binding site.

aggression in mice = details: cited from earlier work
muricide in rats = details: cited from earlier work
[3] = tested on: anti-noradrenergic effects; details: cited from earlier work
narcosis in mice = details: cited from earlier work
TXA2 receptor [4] = biological target: T1, TXA2 receptor; test: TXA2 binding assay ([3H]SQ 29,548), human platelet-based; details: human platelets
Description: The ability of 1-(3-hydroxy-4-methoxyphenyl)-4-methyl-5-ethyl-7,8-dimethoxy-5H-2,3-benzodiazepine to inhibit the binding of [^3H]SQ 29,548 (30-60 Ci/mmol) was determined via the human platelet-based assay of Hedberg et al., “Characterization of [^3H]SQ 29,548 as a High Affinity Radioligand Binding to Thromboxane A2—Receptors in Human Platelets.”, J. Pharmacol. Exp. Ther. 245: 786-792 (1988), with modifications. TXA2 is a very unstable molecule, thus a surrogate ligand of known affinity for the TXA2 receptor is required as a standard for determination of binding affinity of new potential TXA2 ligands. [^3H]SQ 29,548 is a ligand with known binding affinity for the TXA2 receptor. [^3H]SQ 29,548 has been employed as a TXA2 ligand in several published studies, is accepted as a TXA2 binding standard, and is thus useful as a standard in assessing the binding affinity of new compounds to the TXA2 receptor. […]
Reactions were carried out in a reaction mixture comprising 25 mM TRIS-HCl (pH 7.4) containing 138 mM NaCl, 5 mM KCl, 5 mM MgCl2, 5.5 mM dextrose, and 2 mM EDTA at 25° C. for 60 minutes. […] Radioactivity trapped onto the filters was determined and compared to control values in order to ascertain any interactions of test compound with the thromboxane A2 binding site.

central BZ receptors = details: cited from earlier work
peripheral BZ receptors = peripheral BZ receptors (Homo sapiens, UniProt P30536); details: cited from earlier work
Chain of peripheral BZ receptors (P30536 whole entry): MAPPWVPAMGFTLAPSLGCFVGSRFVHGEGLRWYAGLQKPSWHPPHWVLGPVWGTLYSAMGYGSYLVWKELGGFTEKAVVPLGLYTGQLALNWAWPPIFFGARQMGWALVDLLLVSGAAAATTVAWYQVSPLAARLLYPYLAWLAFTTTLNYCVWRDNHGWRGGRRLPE

Pinane-thromboxane
Ki (TXA2 receptor [1]): 149 nM

O=C(O)c1cc(/N=N/c2ccc(S(=O)(=O)Nc3ccccn3)cc2)ccc1O [Sulfasalazine, reference compound]
Colon shortening inhib. % ([2]; 300 mg/kg IP daily + DSS): 30% | Mean colon length CM ± SEM ([2]; 300 mg/kg IP daily + DSS): 8.8 ± 0.29 CM | Mean weight (g) ± SEM Day 0 ([2]; 300 mg/kg IP daily + DSS): 22.6 ± 0.2 g | % weight change ± SEM Day 7 ([2]; 300 mg/kg IP daily + DSS): −0.6 ± 0.5% | Mean weight (g) ± SEM Day 7 ([2]; 300 mg/kg IP daily + DSS): 22.4 ± 0.2 g | % weight change ± SEM Day 8 ([2]; 300 mg/kg IP daily + DSS): −11.4 ± 1.4% | Mean weight (g) ± SEM Day 8 ([2]; 300 mg/kg IP daily + DSS): 20.0 ± 0.4 g | % weight change ± SEM Day 9 ([2]; 300 mg/kg IP daily + DSS): −17.7 ± 1.8% | Mean weight (g) ± SEM Day 9 ([2]; 300 mg/kg IP daily + DSS): 18.6 ± 0.4 g | % of normal length ([2]; 300 mg/kg IP daily + DSS): 69.5% | weight loss as compared to the negative controls ([2]; 300 mg/kg daily + DSS): no observed significant difference

CCC1C(C)=NN=C(c2ccc(O)c(OC)c2)c2cc(OC)c(O)cc21 (stereo not drawn) [Compound 5, 1-(3-methoxy-4-hydroxyphenyl)-4-methyl-5-ethyl-7-hydroxy-8-methoxy-5H-2,3-benzodiazepine]
LTB4 % inhib @ 10 μm (LTB4 receptor): inactive | inhibition of aggression (aggression in mice): 28.6% | inhibition of muricide (muricide in rats): 20% | anti-noradrenergic effects [3]: measurable activity

CCC1C(C)=NN=C(c2ccc(OC)c(OC)c2)c2cc(O)c(OC)cc21 (stereo not drawn) [Compound 2, 1-(3,4-dimethoxyphenyl)-4-methyl-5-ethyl-7-methoxy-8-hydroxy-5H-2,3-benzodiazepine]
inhibition at 10 µM (LTB4 receptor): 36%

CCC1C(C)=NN=C(c2ccc(OC)c(OC)c2)c2cc(OC)c(O)cc21 (stereo not drawn) [Compound 1, 1-(3,4-dimethoxyphenyl)-4-methyl-5-ethyl-7-hydroxy-8-methoxy-5H-2,3-benzodiazepine]
inhibition of aggression (aggression in mice): 0% | inhibition of muricide (muricide in rats): 20% | anti-noradrenergic effects [3]: no effect

CCC1C(C)=NN=C(c2ccc(O)c(OC)c2)c2cc(OC)c(OC)cc21 (stereo not drawn) [Compound 3, 1-(3-methoxy-4-hydroxyphenyl)-4-methyl-5-ethyl-7,8-dimethoxy-5H-2,3-benzodiazepine]
inhibition at 10 µM (LTB4 receptor): 16.8% | inhibition of aggression (aggression in mice): 0% | inhibition of muricide (muricide in rats): 0% | anti-noradrenergic effects [3]: measurable activity | narcosis-potentiating activity (narcosis in mice): demonstrate narcosis-potentiating activity

CCC1C(C)=NN=C(c2ccc(OC)c(O)c2)c2cc(OC)c(OC)cc21 (racemic) [Compound 4, 1-(3-hydroxy-4-methoxyphenyl)-4-methyl-5-ethyl-7,8-dimethoxy-5H-2,3-benzodiazepine]
inhibition at 10 µM (LTB4 receptor): 64% | inhibition at 10 µM (TXA2 receptor [4]): 25.9% | Mean colon length CM ± SEM ([2]; 16 mg/kg IP daily + DSS): 8.9 ± 0.40 CM | Mean weight (g) ± SEM Day 0 ([2]; 16 mg/kg IP daily + DSS): 24.6 ± 0.5 g | % weight change ± SEM Day 7 ([2]; 16 mg/kg IP daily + DSS): +0.5 ± 2.2% | Mean weight (g) ± SEM Day 7 ([2]; 16 mg/kg IP daily + DSS): 24.8 ± 0.8 g | % weight change ± SEM Day 8 ([2]; 16 mg/kg IP daily + DSS): −1.7 ± 3.0% | Mean weight (g) ± SEM Day 8 ([2]; 16 mg/kg IP daily + DSS): 24.3 ± 1.0 g | % weight change ± SEM Day 9 ([2]; 16 mg/kg IP daily + DSS): −7.5 ± 4.3% | Mean weight (g) ± SEM Day 9 ([2]; 16 mg/kg IP daily + DSS): 22.9 ± 1.4 g | % of normal length ([2]; 16 mg/kg IP daily + DSS): 70.2% | Colon shortening inhib. % ([2]; 16 mg/kg IP daily + DSS, listed as 1-(3-hydroxy-4-methoxy-phenyl)-4-methyl-5-ethyl-7,8-dimethoxy-5H-2,3-benzodiazep): significantly inhibited colonic shortening | Colon shortening inhib. % ([2]; 16 mg/kg IP daily + DSS, listed as 1-(3-hydroxy-4-methoxyphenyl)-4-methyl-5-ethyl-7,8-dimethoxy-5H-2,3-benzodiazepi): 32% | Colon shortening inhib. % ([2]; 32 mg/kg IP daily + DSS): 14% | Mean colon length CM ± SEM ([2]; 32 mg/kg IP daily + DSS): 7.9 ± 0.08 CM | Mean DAIWT ± SEM ([2]; 32 mg/kg IP daily + DSS): 2.56 ± 0.27 | Mean weight (g) ± SEM Day 0 ([2]; 32 mg/kg IP daily + DSS): 24.8 ± 0.2 g | % weight change ± SEM Day 7 ([2]; 32 mg/kg IP daily + DSS): −2.5 ± 1.7% | Mean weight (g) ± SEM Day 7 ([2]; 32 mg/kg IP daily + DSS): 24.1 ± 0.5 g | % weight change ± SEM Day 8 ([2]; 32 mg/kg IP daily + DSS): −9.1 ± 2.6% | Mean weight (g) ± SEM Day 8 ([2]; 32 mg/kg IP daily + DSS): 22.5 ± 0.7 g | % weight change ± SEM Day 9 ([2]; 32 mg/kg IP daily + DSS): −15.7 ± 4.1% | Mean weight (g) ± SEM Day 9 ([2]; 32 mg/kg IP daily + DSS): 20.9 ± 1.0 g | % of normal length ([2]; 32 mg/kg IP daily + DSS): 62.3% | Mean DAI ± SEM ([2]; 32 mg/kg IP daily + DSS): 2.67 ± 0.36 | Colon shortening inhib. % ([2]; 64 mg/kg IP daily + DSS): 37% | Mean colon length CM ± SEM ([2]; 64 mg/kg IP daily + DSS): 9.2 ± 0.33 CM | Mean DAIWT ± SEM ([2]; 64 mg/kg IP daily + DSS): 2.00 ± 0.45 | Mean weight (g) ± SEM Day 0 ([2]; 64 mg/kg IP daily + DSS): 23.7 ± 0.2 g | % weight change ± SEM Day 7 ([2]; 64 mg/kg IP daily + DSS): −2.7 ± 2.8% | Mean weight (g) ± SEM Day 7 ([2]; 64 mg/kg IP daily + DSS): 23.0 ± 0.6 g | % weight change ± SEM Day 8 ([2]; 64 mg/kg IP daily + DSS): −4.8 ± 4.3% | Mean weight (g) ± SEM Day 8 ([2]; 64 mg/kg IP daily + DSS): 22.5 ± 0.9 g | % weight change ± SEM Day 9 ([2]; 64 mg/kg IP daily + DSS): −9.7 ± 4.9% | Mean weight (g) ± SEM Day 9 ([2]; 64 mg/kg IP daily + DSS): 21.3 ± 1.1 g | % of normal length ([2]; 64 mg/kg IP daily + DSS): 72.5% | Mean DAI ± SEM ([2]; 64 mg/kg IP daily + DSS): 2.06 ± 0.48 | weight loss as compared to the negative controls ([2]; test compound groups (64, 32, 16 mg/kg) + DSS): no observed significant difference

CCC1C(C)=NN=C(c2ccc(OC)c(O)c2)c2cc(OC)c(O)cc21 (stereo not drawn) [Compound 6, 1-(3-hydroxy-4-methoxyphenyl)-4-methyl-5-ethyl-7-hydroxy-8-methoxy-5H-2,3-benzodiazepine]
LTB4 % inhib @ 10 μm (LTB4 receptor): inactive

CCC1C(C)=NN=C(c2ccc(OC)c(OC)c2)c2cc(OC)c(OC)cc21 (stereo not drawn) [tofisopam]
interaction with central BZ receptors (central BZ receptors): does not interact | binding to peripheral BZ receptors (peripheral BZ receptors): binds only weakly
